From patent publication US20070191396A1, “Fungicidal mixtures” (BASF Aktiengesellschaft, priority 2004, published 2007)

Test system: Pyrenophora teres
Test: Activity against net blotch of barley caused by Pyrenophora teres, 1 day protective application
Format: in vivo
Conditions: individual active compound, barley seedlings "Hanna", assessed after 6 days
Method: The active compounds, separately, were prepared as a stock solution comprising 25 mg of active compound which was made up to 10 ml using a mixture of acetone and/or DMSO and the emulsifier Uniperol® EL (wetting agent having an emulsifying and dispersing action based on ethoxylated alkylphenols) in a ratio by volume of solvent/emulsifier of 99:1. The mixture was then made up to 100 ml with water. The active compounds or mixtures were diluted or mixed with water to the stated concentration.
Activity against net blotch of barley caused by Pyrenophora teres, 1 day protective application
Leaves of potted barley seedlings of the “Hanna” cultivar were sprayed to runoff point with an aqueous suspension having the concentration of active compound stated below. 24 hours after the spray coating had dried on, the test plants were inoculated with an aqueous spore suspension of Pyrenophora [syn. Drechslera] teres, the net blotch pathogen. […] After 6 days, the extent of the development of the disease was determined visually in % infection of the total leaf area.
The visually determined percentages of infected leaf areas were converted into efficacies in % of the untreated control:
The efficacy (E) is calculated as follows using Abbot's formula: E=(1−[…] )·100 α corresponds to the fungal infection of the treated plants in % and β corresponds to the fungal infection of the untreated (control) plants in % […]

## CC1CCN(c2c(-c3c(F)cc(F)cc3F)c(Cl)nc3ncnn23)CC1 [I, 5-chloro-7-(4-methylpiperidin-1-yl)-6-(2,4,6-trifluorophenyl)[1,2,4]triazolo[1,5-a]pyrimidine]
1.25 ppm in the spray liquor
  Efficacy in % of the untreated control: 55 % of the untreated control
5 ppm in the spray liquor
  Efficacy in % of the untreated control: 78 % of the untreated control
